Assay results: patent US20110143948A1, “MOLECULAR SIGNATURES AND BIOMARKERS ASSOCIATED WITH MELANOMA AND METHODS OF USE THEREOF” (priority 2008, published 2011)

System: ncRNAs (SEQ ID NO 28-89)
Assay: ncRNA arrays of melanocytes, keratinocytes, normal skin, melanoma cell lines and patient samples
Design: species or system human
Details: for ncRNA array expression, patient 2: melanoma patient 2 sample compared to normal skin; for ncRNA array expression, patient 3: melanoma patient 3 sample compared to normal skin; for ncRNA array expression, patient 4: melanoma patient 4 sample compared to normal skin; for ncRNA array expression, patient 5: melanoma patient 5 sample compared to normal skin; for ncRNA array expression, patient 6: melanoma patient 6 sample compared to normal skin; for ncRNA array expression, patient 7: melanoma patient 7 sample compared to normal skin; for ncRNA array expression, patient 8: melanoma patient 8 sample compared to normal skin; for ncRNA array expression, patient 9: melanoma patient 9 sample compared to normal skin; for ncRNA array expression, patient 10: melanoma patient 10 sample compared to normal skin; for ncRNA array expression, patient 19: melanoma patient 19 sample compared to normal skin; for ncRNA array expression, patient 20: melanoma patient 20 sample compared to normal skin; for ncRNA array expression, patient 21: melanoma patient 21 sample compared to normal skin; for ncRNA array expression, patient 22: melanoma patient 22 sample compared to normal skin; for ncRNA array expression, patient 23: melanoma patient 23 sample compared to normal skin; for ncRNA array expression, patient 24: melanoma patient 24 sample compared to normal skin; for ncRNA array expression, patient 25: melanoma patient 25 sample compared to normal skin; for ncRNA array expression, patient 26: melanoma patient 26 sample compared to normal skin; for ncRNA array expression, patient 27: melanoma patient 27 sample compared to normal skin; for ncRNA array expression, patient 28: melanoma patient 28 sample compared to normal skin; for ncRNA array expression, patient 29: melanoma patient 29 sample compared to normal skin; for ncRNA array expression, patient 30: melanoma patient 30 sample compared to normal skin
In short: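 Total RNA from melanocytes, keratinocytes, normal human skin, melanoma cell lines and melanoma patient samples was profiled on an array of >10,000 putative (>200 nt) human and mouse ncRNAs plus RefSeq mRNA probes. Expression was compared with melanocytes or normal skin, keratinocyte signatures were subtracted, and hits were validated by qRT-PCR and Northern blot.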

Substance | ncRNA array expression, patient 2 | ncRNA array expression, patient 3 | ncRNA array expression, patient 4 | ncRNA array expression, patient 5 | ncRNA array expression, patient 6 | ncRNA array expression, patient 7 | ncRNA array expression, patient 8 | ncRNA array expression, patient 9 | ncRNA array expression, patient 10 | ncRNA array expression, patient 19 | ncRNA array expression, patient 20 | ncRNA array expression, patient 21 | ncRNA array expression, patient 22 | ncRNA array expression, patient 23 | ncRNA array expression, patient 24 | ncRNA array expression, patient 25 | ncRNA array expression, patient 26 | ncRNA array expression, patient 27 | ncRNA array expression, patient 28 | ncRNA array expression, patient 29 | further results
SEQ ID NO 71 (AAAATTCCAAGAGGGCCTTTTCGAATAGACGCATGAACGGTGTTTGTGTCTGGATCGTCC; listed as DNA, chemistry not given here; listed as Homo sapiens) | 0.7413 | 0.6126 | 1.336 | 2.628 | 1.002 | 1.936 | 0.7221 | 0.1592 | 1.787 | 3.439 | 1.577 | 1.245 | 1.105 | 0.258 | 2.527 | 2.034 | 1.058 | 1.849 | 0.926 | 2.387 | ncRNA array expression, patient 30: −2.464
SEQ ID NO 72 (AATTACATATATTTAGCAGGATTTTTATTTGCCGTGATATATAGGATAATTTAGTCTTTG; listed as DNA, chemistry not given here; listed as Homo sapiens) | 2.217 | 2.382 | 2.566 | 1.096 | 2.336 | 2.665 | 3.323 | −0.6629 | 2.245 | 0.2985 | 1.011 | 0.6264 | 0.5499 | 0.09129 | 2.832 | 3.664 | 3.29 | 2.308 | 1.044 | 2.583 | ncRNA array expression, patient 30: −1.3285
SEQ ID NO 73 (AAAGTTTCCCCATAATGCTCTTGCAAGTGAATATGAGCTGTGGTTTTTGCAGTGGAGTTA; listed as DNA, chemistry not given here; listed as Homo sapiens) | −0.1172 | 1.314 | 2.477 | −0.06181 | 1.506 | −0.179 | 1.518 | 1.007 | 1.767 | 3.505 | 0.6301 | 2.332 | 0.9622 | 0.07892 | 0.3377 | 1.57 | 1.308 | 0.1447 | 2.166 | 0.9153 | ncRNA array expression, patient 30: −0.2612
SEQ ID NO 74 (TATATTACAGGAGTTGTCTATACGATTATAGTACCTGATTCTTTGGACATATCATTGAAC; listed as DNA, chemistry not given here; listed as Homo sapiens) | 2.155 | 1.879 | 2.326 | 0.3239 | 0.8281 | 2.016 | 1.309 | 0.6157 | 2.172 | −0.2091 | 0.8773 | 1.569 | 0.2398 | 1.776 | 0.8669 | 2.599 | 2.626 | 0.4062 | 2.421 | 1.974 | ncRNA array expression, patient 30: −1.075
SEQ ID NO 75 (CAAGTGGGAAGAAAAAGAGCCCTACGTGGTGACATTCTGGAAGGATATCATGGATGATTG; listed as DNA, chemistry not given here; listed as Homo sapiens) | 0.5875 | 0.2177 | 1.062 | 1.072 | 1.853 | 2.114 | 2.605 | 1.117 | 0.6968 | 1.219 | 2.945 | 1.592 | 1.681 | 1.545 | 2.209 | −0.3024 | 0.226 | 3.291 | 1.546 | 2.221 | ncRNA array expression, patient 30: −1.4645
SEQ ID NO 76 (TGTTTCTAATGCATACTGTGAAAGGAAAAAAAATCACAGTTATCCACCTTCTCAGGGCCT; listed as DNA, chemistry not given here; listed as Homo sapiens) | −1.682 | −1.051 | −1.297 | −1.036 | 0.3953 | −1.741 | −1.681 | −1.284 | −0.6169 | −0.775 | −1.184 | −1.216 | −0.05441 | 0.7328 | −1.262 | −1.549 | −1.597 | −1.555 | −1.598 | −1.765 | ncRNA array expression, patient 30: 0.4068
SEQ ID NO 77 (AAGTTTCCACGGCAGGTTCTCGTAGCACCTTTGGTCAAGAACTGAAGGGGCCTTTAGATG; listed as DNA, chemistry not given here; listed as Homo sapiens) | −2.141 | −1.9159 | −2.042 | −1.549 | −0.8383 | −1.639 | −1.644 | −2.053 | −2.146 | −0.2581 | −1.526 | −1.23 | −0.5892 | 0.23 | −1.578 | −2.219 | −2.157 | −1.387 | −1.165 | −1.796 | ncRNA array expression, patient 30: 0.6447
